The record followed here is patent US7005437B2, “Substituted aryl and heteroaryl derivatives, the preparation thereof and the use therof as pharmaceutical compositions” (Boehringer Ingelheim Pharma KG, priority 2001, dated 2006).

The target of the assay is T1, human factor Xa (Homo sapiens, UniProt P00742).
T1 construct: released from the colourless chromogenic substrate by human factor Xa; purchased Roche
The assay is described as follows: Factor Xa inhibition, enzyme-kinetic measurement with chromogenic substrate. The format is biochemical. The note with it: chromogenic substrate Chromozym X, pNA release at 405 nm, pH 8.0, 37° C. As to the method:
The compounds of Examples 1 to 45 of the present application were investigated for their effect on the inhibition of factor Xa as follows: Method: Enzyme-kinetic measurement with chromogenic substrate. The quantity of p-nitroaniline (pNA) released from the colourless chromogenic substrate by human factor Xa is determined photometrically at 405 nm. It is proportional to the activity of the enzyme used. The inhibition of the enzyme activity by the test substance (in relation to the solvent control) is determined at various concentrations of test substance and from this the IC50 is calculated, as the concentration which inhibits the factor Xa used by 50%.
Tris(hydroxymethyl)-aminomethane buffer (100 mMol) of and sodium chloride (150 mMol), pH 8.0
Factor Xa (Roche), spec. activity: 10 U/0.5 ml, final concentration: 0.175 U/ml for each reaction mixture
Substrate Chromozym X (Roche), final concentration: 200 μMol/l for each reaction mixture
10 μl of a 23.5-times concentrated starting solution of the test substance or solvent (control), 175 μl of tris(hydroxymethyl)-aminomethane buffer and 25 μl of a 1.65 U/ml Factor Xa working solution are incubated for 10 minutes at 37° C. After the addition of 25 μl of Chromozym X working solution ([…]) the sample is measured in a photometer (SpectraMax 250) at 405 nm for 150 seconds at 37° C.
1. […]

In general, IC50 refers to the point on the concentration scale where inhibition reaches its midpoint. Read a low IC50 as higher potency.

Where a name gives a salt, the structure may show the parent alone.

T1 sequence (P00742 235-488 limits assumed): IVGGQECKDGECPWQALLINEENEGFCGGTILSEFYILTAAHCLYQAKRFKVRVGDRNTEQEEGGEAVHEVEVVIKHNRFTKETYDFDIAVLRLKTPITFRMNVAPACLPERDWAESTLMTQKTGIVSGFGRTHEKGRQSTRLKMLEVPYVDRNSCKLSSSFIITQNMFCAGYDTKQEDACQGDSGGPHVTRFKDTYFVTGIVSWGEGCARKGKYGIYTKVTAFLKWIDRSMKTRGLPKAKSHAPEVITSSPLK
T1 sequence (P00742 41-179 partner limits assumed): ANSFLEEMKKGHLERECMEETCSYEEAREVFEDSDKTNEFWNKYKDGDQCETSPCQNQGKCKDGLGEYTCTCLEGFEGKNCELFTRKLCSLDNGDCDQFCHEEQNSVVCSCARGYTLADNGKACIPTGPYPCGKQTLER

In the case of `Cc1cc(C#CCN(Cc2ccccc2)c2cccc(C(=N)N)c2)ccc1C(=O)N1CC=CC1` [Example 37, 3-{N-benzyl-3-[3-methyl-4-(2,5-dihydropyrrol-1-yl-carbonyl)-phenyl]-propargylamino}-benzamidine-hydrochloride], it took 4 nM to reach half-maximal inhibition (IC50).
